Values joined by “and” are separate entries in the source; they are usually repeats but may differ in a detail not shown here. Identical values can stand only once.
How the values were obtained:
[1] = tested on: PBMC from HLA-A2.1+ healthy donors; experiment: In vitro elicitation of PR1-CTL from PBMC with peptide-pulsed APC, PR1/HLA-A2 tetramer staining; type: cell-based, human
Procedure: Peptide-specific CTLs were expanded in culture using methods described previously (Molldrem et al., 1996; Molldrem et al., 1997). Briefly, PBMCs from healthy donors or CML patients were stimulated in vitro with PR1, pp65, or flu peptides. T2 cells were washed three times in serum-free CM and incubated with peptide at the indicated peptide concentration for 2 hr in CM.
Ab's and flow cytometry. For routine surface-antigen staining, 10^6 PBMCs were incubated at 4° C. with Ab. After washing, cells were incubated with FITC-labeled CD8 (Caltag Laboratories Inc., Burlingame, Calif., USA) for 30 min on ice. Surface expression of TCR was determined with FITC-labeled TCR-αβ (PharMingen, San Diego, Calif., USA), and annexin V using FITC-labeled Ab (Caltag Laboratories). Proteinase 3 expression was determined with primary mouse Ab (Accurate Chemical & Scientific Corp., Westbury, N.Y., USA). Mouse monoclonal anti-HLA-A2.1 Ab BB7.2 and anti-HLA-ABC w6/32 were derived from culture supernatants of a hybridoma cell lines (American Tissue Culture Collection). Cells were washed and fixed in 2% paraformaldehyde and analyzed on a FACScan (Becton Dickinson Immunocytometry Systems), and data were analyzed using CELLQuest (Becton Dickinson Immunocytometry Systems) software. The minimum concentration of tetramer necessary to show distinctly different avidities was determined in titration experiments. Each tetramer reagent was titered individually and used at the optimal concentration. The tetramer concentration showing the maximal separation of fluorescence intensity of CTL populations was generally 10-20 μg/ml. Propidium iodide (PI) (Becton Dickinson Immunocytometry Systems) staining (1 μg/ml) was performed to exclude dead cells, according to the manufacturer's instructions. A “dump” channel was used with tetramer staining to eliminate monocytes and B lymphocytes with nonspecific binding to the HLA-A2 heavy chain by staining with PerCP-labeled CD14 and CD19 (both Becton Dickinson Immunocytometry Systems).
PR1-specific CTL with high and low TCR avidity can be elicited from healthy donors. To determine whether high and low avidity PR1-CTL are present in healthy donors, a modified tetramer staining technique (Savage et al., 1999) using limiting tetramer concentration to visualize high and low fluorescence intensity tetramer+ cells, which correlates with high and low TCR avidity was utilized. Sufficient PR1-CTL was elicited by stimulating PBMC with increasing peptide concentrations for 28 days. PBMC from an HLA-A2.1+ healthy donor stimulated weekly for 28 days with 0.2 μM PR1 elicited 1.3% high intensity PR1/HLA-A2 tetramer-staining CTL with a median channel of fluorescence (MCF) of 293 (high avidity PR1-CTL), while stimulation with 20 μM PR1 produced 3.1% low avidity (MCF=93) PR1-specific CTL (FIG. 11A). […] Cultures stimulated with 2 μM PR1 produced fewer PR1-specific CTL with mixed TCR avidities, while stimulation with ≦0.02 μM PR1 induced <0.1% PR1-CTL. […] To further verify that tetramer staining intensity correlates with TCR avidity, the kinetics of tetramer staining decay was determined using previously described techniques (Savage et al., 1999).

T2 cells = experiment: 4-hr cytotoxicity of peptide-elicited CTL lines against peptide-loaded T2 cells
Procedure: CTL cytotoxicity assay. A semiautomated minicytotoxicity assay was used to determine specific lysis as described previously (Molldrem, 2000; Molldrem et al., 1996). Briefly, effector cells were prepared in doubling dilutions from 6×10^3 to 25×10^3 cells/well and were plated in 40 μl, 60-well Terasaki trays (Robbins Scientific, Sunnyvale, Calif., USA) with six replicates per dilution. Target cells (T2 cells, marrow-derived leukemic cells, or BM from a healthy donor) at a concentration of 2×10^6 cells/ml were stained with 10 μg/ml of Calcein-AM (Molecular Probes Inc.) for 60 min at 37° C. After washing three times in CM plus 10% AB, target cells were resuspended at 10^5 cells/ml, and 10^3 target cells in 10 μl medium were added to each well containing effector cells. Wells with target cells alone and medium alone were used for maximum (max) and minimum (min.) fluorescence emission, respectively. After 4 hr incubation at 37° C. in 5% CO2, 5 μl FluoroQuench (One Lambda Inc., Canoga Park, Calif., USA) was added to each well, and the trays were centrifuged for 1 min at 60 g before measurement of fluorescence using an automated CytoFluor II plate reader (PerSeptive Biosystems, Framingham, Mass., USA). The percentage of lysis was calculated as follows: % lysis={1−[(mean experimental mission−mean min.)/(mean max−mean min.)]}×100%.
Induction of Primary CTL responses to peptides. These peptides were next used to stimulate T cells specific for peptide-coated targets. PBMC from a normal healthy donor heterozygous for HL-A2.1 were stimulated with peptide-pulsed T2 cells. […] Briefly, T2 cells (which co-express the costimulatory molecule B7.1) were washed 3 times in serum-free RPMI culture media supplemented with penicillin/streptomycin and glutamine (CM) and incubated with peptide at 20 μg/mL for 2 hr in CM. The peptide loaded T2 cells were then irradiated with 7500 cGy, washed once, and suspended with freshly isolated PBMC at a 1:1 ratio in CM supplemented with 10% human serum (HS) (Sigma, St. Louis, Mo.). […]

HLA-A2.1 = HLA-A2.1 (Homo sapiens, UniProt P04439, D140Y/D185E/D98H/E176V/E277Q/G131W/G231S/I119V/I121R/I166T/I218V/L300P/L318F/N151K/N90K/P208A/P217A/Q86G/Q94H/R138H/R169H/T345S); experiment: HLA-A2.1 surface expression on peptide-coated T2 cells (indirect flow cytometry, BB7.2); type: binding; details: compared with T2 without peptide / control influenza peptide
Procedure: Cell lines and peptide binding. T2 cells (American Type Culture Collection, Rockville, Md., USA) were maintained in culture in CM plus 10% FBS (Atlanta Biologicals Inc., Norcross, Ga., USA). PR1 peptide was incubated at increasing concentrations for 18 hr at 37° C. with 100 μg/ml β2m (Sigma-Aldrich) with 10^6 T2 cells in 1 ml CM. Cells were washed twice with CM, stained with BB7.2 Ab, washed again, and then stained with FITC-labeled secondary Ab (Becton Dickinson Immunocytometry Systems, San Jose, Calif., USA).
T2 cells are a human lymphocyte line that lacks TAP1 and TAP2 genes and therefore cannot present endogenous MHC class I restricted antigens. If the peptide effectively bound HLA-A2.1, it stabilized the complex with (β2-microglobulin and increased HLA-A2.1 surface expression, which could be measured using flow cytometry. An HLA-A2.1 specific monoclonal antibody (BB7.2, ATCC, Rockville, Md.) followed by a FITC-labeled secondary antibody (CalTag Laboratories, Burlingame, Calif.) was used to measure surface expression of HLA-A2.1.
T2 cells are a human lymphocyte line that lacks TAP1 and 2 genes and cannot therefore present endogenous MHC class I restricted antigens. If the peptide effectively bound HLA-A2.1, it stabilized the complex with β2-microglobulin and increased HLA-A2.1 surface expression, which could be measured using flow cytometry. An HLA-A2.1 specific monoclonal antibody (BB7.2, ATCC, Rockville, Md.) followed by a FITC-labeled secondary antibody (CALTAG) was used to measure surface expression of HLA-A2.1. […] The labeled heterotrimer complex was separated from unincorporated β2-microglobulin by high-performance liquid

[2] = tested on: marrow cells from a normal healthy donor; experiment: Cytotoxicity of peptide-elicited CTL against normal donor marrow cells; type: cell-based, human
Text: (§1) PR1 specific CTL preferentially lyse human myeloid leukemia cells. It was next determined whether the PR1-specific CTL line was capable of lysing allogeneic human myeloid leukemia cells from HLA-A2.1 positive individuals. As controls, two cell lines expressing low levels of Pr3 were used: HLA-A2.1 transfected K562 cells and U937 cell line which lack HLA-A2.1 and would therefore be incapable of presenting peptides in an HLA-A2.1-restricted manner. Cryopreserved bone marrow cells from patients P1-P4, and marrow cells from a healthy normal volunteer (D2, a bone marrow donor for an allogeneic bone marrow transplant performed on patient P3) were thawed and used as targets for the PR1-specific CTL line.
(§2) It was next determined whether the MY2 and MY4-specific CTL lines were capable of lysing allogeneic human myeloid leukemia cells from HLA-A2.1 positive individuals. The targets were BM cells from pre-transplant HLA-A2.1-positive AML patients. As controls, BM cells from HLA-A2.1-negative AML patients, BM from HLA-A2.1-positive healthy donors and two cell lines expressing low levels of MPO were used: HLA-A2.1 transfected K562 cells and the U937 cell line which lacks HLA-A2.1 and would therefore be incapable of presenting peptides in an HLA-A2.1-restricted manner.

[3] = tested on: human myeloid leukemia cells; experiment: Cytotoxicity of peptide-elicited CTL against HLA-A2.1-positive myeloid leukemia marrow cells; type: cell-based; details: for lysis of HLA-A2.1-positive AML marrow cells by peptide-specific CTL: MY2: E:T 5:1
Text: as §1, §2

[4] = tested on: HMy2.CIR-A2 cells transfected with Pr3; experiment: PR1-specific CTL lysis of Pr3-transfected HMy2.CIR-A2 cells; type: cell-based, human; details: clone 1.4; E:T 25:1
Procedure: Expression of proteinase 3 following transfection into and HMy2.CIR and HMy2.CIR-A2 cells. […] The parental HMy2.CIR cell line, which has lost expression of HLA-A and -B, and the HLA-A2.1-transfected HMy2.CIR cells (named HMy2.CIR-A2), were both transfected with Pr3 as described below.
Ten million HMy2.CIR (ATCC, Rockville, Md.), or 10 million HMy2.CIR-A2 cells were each washed in phosphate buffered saline (PBS) and re-suspended in 0.8 mL of ice-cold PBS and put into an electroporation cuvette with 20 μg of circular plasmid DNA. The mixture was exposed to an electric pulse of 320 volts at 960 microF and incubated on ice for 10 min. Cells were then added to 10 mL of pre-warmed CM. The following day, the CM was replaced. On day 2, cells were grown under selection conditions using 200 μg/mL Zeocin. Following one week of selection, the cells were subcloned by limiting dilution under Zeocin selection, and 6 clones were isolated.
HMy.2.CIR-A2 cells transfected with Pr3 are susceptible to lysis by PR1 specific CTL. It was next determined whether the transfected HMy2.CIR-A2 cells could be lysed by PR1 specific CTL. The PR1 specific CTL were elicited in the manner previously described, and after 22 days in culture were combined at a 25:1 E:T ratio with HMy2.CIR-A2 transfected either with the Pr3-containing vector pRTZ.2, or the empty vector containing the reporter gene, CAT. […]

PR1-CTL = experiment: Annexin V apoptosis of PR1-CTL challenged with peptide-pulsed T2 cells; type: cell-based, human; details: for apoptosis (Annexin V) of high avidity PR1-CTL: T2 pulsed with 20 μM peptide, 16 to 18 hr
Text: High PR1 concentration and proteinase 3-overexpressing CML cells induce apoptosis of high avidity PR1-specific CTL. […] All high avidity PR1-CTL exposed to high dose PR1 were dead after 36 to 48 hr of co-culture.

[5] = tested on: HLA-A2+ patients with CML, AML or MDS; experiment: Phase I/II PR1 peptide vaccine study in myeloid leukemia patients; type: in vivo, human
Procedure: PR1 peptide is injected subcutaneously in incomplete Freund's adjuvant every 3 weeks for 3 injections to induce a PR1 specific host response against the myeloid leukemia. Both in Phase I and in Phase II, patients will also be evaluated for signs of immune reactivity. […] The amount of Proteinase 3 expression in the leukemia cells is studied by cytoplasmic flow cytometry analysis. Any clinical responses (defined by standard criteria as hematological and/or cytogenetic responses) will be correlated with the in vitro testing. Vaccination at 3 dose levels of peptide with a fixed amount of IFA will be conducted, and stopping criteria will be guided by established toxicity criteria.
HLA-A2^+ patients with CML (interferon-resistant or relapsed after BMT), AML (smoldering relapse or ≧2nd CR) or MDS (RAEB or RAEBt) with no detectable antibodies to proteinase 3 (no detectable cANCA) were eligible. Patients that relapsed after BMT or those ineligible for BMT were also eligible for study. […]
Secondarily, clinical responses were assessed by standard criteria with bone marrow biopsy, cytogenetic studies (standard chromosome banding) and molecular studies (PCR for bcr-abl or other known abnormalities such as t(15;17), inv16, etc.) 3 weeks after the last vaccination. Patients were seen and evaluated in clinic every 3 weeks during the study period. […]

AML CFU-GM = experiment: CFU-GM colony inhibition by MY4-pulsed CTL, AML marrow; type: cell-based, human; details: patient P1 (M2-AML) and P2 (M4-AML), respectively; 13 day MY4-pulsed CTL
Text: (§3) In contrast there was no inhibition of CFUGM from normal marrow, D1 and D2, the corresponding HLA identical marrow donors for P1 and P2.

[6] = tested on: CFU-GM from normal marrow; experiment: CFU-GM colony inhibition by MY4-pulsed CTL, normal marrow; type: cell-based, human; details: D1 and D2, HLA identical marrow donors
Text: as §3

[7] = T2 loaded with 1.0 μg/mL of same peptide, varying E:T

VLQELNVTV [PR1]
% of bulk culture CTL double-positive (CD8, PR1-tetramer) ([1]; 32 day-old PR1-stimulated CTL culture): 4.3% | % PR1/HLA-A2 tetramer-staining CTL ([1]; PBMC stimulated weekly 28 days with 0.2 μM PR1 (high avidity)): 1.3% | % of CTL line specific for PR1 (PR1-tetramer/CD8) ([1]; day 17 CTL line elicited against PR1): 2.4% | % PR1/HLA-A2 tetramer-staining CTL ([1]; stimulated with 20 μM PR1 (low avidity)): 3.1% | % PR1-CTL induced ([1]; stimulation with ≦0.02 μM PR1): < 0.1% | specific lysis of peptide-loaded T2 cells by CTL line generated against the peptide (T2 cells; [7]): high specific lysis | surface HLA-A2.1 expression on peptide-pulsed T2 cells (in words) (HLA-A2.1): increased surface HLA-A2.1 expression | lysis of normal donor marrow cells by PR1-specific CTL ([2]; donor D2): < 20% | specific lysis of CML blast crisis marrow cells by PR1-specific CTL ([3]; CML-BC, E:T 25:1): 73% | lysis of CML #3 BM cells by patient CTL elicited with 0.2 μM PR1 ([3]; CTL from patients CML #1 and CML #2, respectively, E:T 20:1): 24%±5% and 33%±6% | specific lysis of CML marrow cells by PR1-specific CTL ([3]; P1, CML in chronic phase, E:T 6:1): 53% | specific lysis of Pr3-transfected cells by PR1-specific CTL [4]: 36% | apoptosis (Annexin V) of high avidity PR1-CTL (PR1-CTL): underwent apoptosis | apoptosis (Annexin V) of low avidity PR1-CTL (PR1-CTL; high or low concentrations of PR1): did not undergo apoptosis | patients with complete remission ([5]; 9 patients (1 AML and 1 CML)): 2 patients | patients in whom PR1-specific CTL immunity was elicited (tetramer staining) ([5]; 9 patients, 0.25, 0.5 or 1.0 mg every 3 weeks x3): 6 of 9

RLFPDFFTRV [PR2]
specific lysis of peptide-loaded T2 cells by CTL line generated against the peptide (T2 cells; [7]): did not demonstrate any significant cytotoxicity | surface HLA-A2.1 expression on peptide-pulsed T2 cells (in words) (HLA-A2.1): increased surface HLA-A2.1 expression

Influenza nucleoprotein: control influenza peptide, Influenza B nucleoprotein (aa 85-94), known high binding affinity to HLA-A2.1 (KLGEFYNQMM) [reference compound]
apoptosis (Annexin V) of high avidity PR1-CTL (PR1-CTL): no apoptosis was observed

KLNDILLIQL [PR7I]
surface HLA-A2.1 expression on peptide-pulsed T2 cells (in words) (HLA-A2.1): strong peptide binding

RLFEQVMRI [MY4]
specific lysis of HLA-A2+ normal BMC by peptide-specific CTL [2]: not normal cells | inhibition of CFU-GM (AML CFU-GM): 63% and 34% | inhibition of CFU-GM from normal marrow [6]: no inhibition | lysis of HLA-A2.1-positive AML marrow cells by peptide-specific CTL [3]: killed AML cells

KLLLALAGL [MY2]
specific lysis of peptide-loaded T2 cells by CTL line generated against the peptide (T2 cells; T2 loaded with 2.0 μg/mL of same peptide): high specific lysis | lysis of HLA-A2.1-positive normal healthy donor marrow cells by MY2-specific CTL ([2]; E:T 20:1): 43% | lysis of HLA-A2.1-positive AML marrow cells by peptide-specific CTL [3]: readily lysed

KLNDVLLIQL [PR7V]
surface HLA-A2.1 expression on peptide-pulsed T2 cells (in words) (HLA-A2.1): strong peptide binding

— US20060045881A1, “Anti-cancer vaccines” (Board of Regents, The University of Texas System, priority 2004, published 2006)
